According to paper PMC4802308, “Integrating computational and chemical biology tools in the discovery of antiangiogenic small molecule ligands of FGF2 derived from endogenous inhibitors” (Scientific Reports, 2016):

Assays:
FGF2 mitogenic activity = system: FGF2 mitogenic activity; parameters: method as in PMID 12676958; details: read-out: IC50, inhibition of FGF2 mitogenic activity; cited from earlier work
FGF2 [1] = molecular target: T1, FGF2 (Homo sapiens, UniProt P09038); assay: Competition with biotinylated recombinant TSP-1 domain (E123CaG1) for binding to FGF2 (DELFIA); details: Fig. 6B
T1 construct: purchased R&D Systems, obtained through the NCI-Biological Resources Branch
Text: Of the identified hits, 23 (Fig. 1 and Suppl. Table S1), made available from the NCI (NIH), were subjected to experimental analysis of FGF2 binding. We used an indirect assay, based on the competition of the tested molecules with the recombinant TSP-1 type III domain for binding to FGF2, an approach previously employed to analyze the FGF2/SM27 binding.
Figure 2 FGF2-binding property of the selected hits, analyzed with an indirect assay, as ability to compete with the TSP-1 fragment E123CaG1 (comprising the type III repeats domain) for FGF2 binding, as described in Methods. Binding of the biotinylated recombinant domain to FGF2 in the presence or absence of each molecule (5 μM). Data are the percentage of control binding, mean and SE of 3 experiments performed in triplicate. *p < 0.05 compared to control (ANOVA followed by Bonferroni test).
DELFIA® Microtitration plates and reagents were from PerkinElmer. Plates were coated overnight at 4 °C with FGF2 (0.1 μg in 40 μl /well PBS). After washing, non-specific binding sites were saturated by a 30 minute incubation with PBS 1% BSA. The biotin-labeled recombinant TSP-1 fragment (10 nM) was added in 40 μl PBS 1% BSA with or without the indicated concentration of small molecules, and incubated for 3 h at room temperature. The plates were washed with PBS 0.1% BSA and incubated for 1 h with 100 μl/well Eu-Labeled Streptavidin 1:1000 at room temperature. After washing, plates were incubated with DELFIA® Enhancement Solution. Time resolved fluorescence was measured using a Victor[3] multilabel plate reader (PerkinElmer).

FGF2 [2] = molecular target: T2, FGF2 (Homo sapiens, UniProt P09038, A3E/C211S/C229S/S5E); assay: NMR titration (1H-15N HSQC) of 15N-labeled FGF2; format: binding; details: pH 5.5, 25 °C
T2 construct: purchased ASLA (Riga, Latvia)
Procedure: In order to investigate whether the functionalized phenylamino-substituted naphthalenes maintained the ability of TSP-1 and SM27 to target the heparin interaction site of FGF2[16][21], interaction studies between SM.1–31 or SM.1–34 (showing the highest activity) and FGF2 were performed by NMR. Each SM was titrated into a solution of ^15N-enriched FGF2 protein and a series of 2D ^1H^15N-HSQC experiments were recorded to follow the protein changes induced by the ligand. […] Residues showing the highest perturbations are Arg129 and Lys144, as previously observed for SM27, pointing to similar interactions that likely involve inhibitors SO3 groups.
NMR samples contained 0.57 mM ^15N-labeled FGF2, dissolved in a buffer containing 50 mM potassium phosphate, 2 mM NaN3, and 10 mM deuterated DTT in 90% H2O/10% D2O, pH 5.5. For the identification of the binding region, SM.1–34 and SM.1–31 were incrementally added to protein solutions up to SM:FGF2 stoichiometric ratio of 3. NMR data were collected on a Bruker DMX 500 MHz spectrometer at 25 °C. 2D ^1H-^15N HSQC spectra were recorded with a sweep width of 13 ppm (^1H) and 40 ppm (^15N). 1k × 128 data points were used in proton and nitrogen dimensions, respectively. Data, acquired and processed using Topspin (Bruker Biospin), were apodized with a squared sinebell shifted by 90° and polynomial baseline correction. […]

BAEC = assay: FGF2-induced endothelial cell proliferation assay; format: cell-based, Bovine; details: FGF2 5 ng/ml, 72 h
Procedure: (§1) Figure 4 Biological activity of the selected hits. (A) Endothelial cell proliferation. BAEC were exposed to FGF2 (5 ng/ml) with increasing concentrations of molecules (3–80 μM). After 72 h, cells were stained and proliferation measured as absorbance. Data are the percentage of control proliferation (in absence of molecules), mean of value from 2 experiments performed in triplicate. (B–D) Aortic ring assay. Sections of murine aortas were embedded in Matrigel, in the presence of FGF2 (30 ng/ml) and the indicated small molecule. The formation of capillary structures sprouting from the rings was analyzed after 7 and 11 days as described in Methods, and the angiogenic response expressed as area covered by the sprouting structures (arbitrary units, mean and SE, n ≥ 6). (B) Antiangiogenic activity of the small molecules (100 μM). (C) Examples of time-dependent and dose-dependent effect of two compounds (SM.2–20 and SM.2–23), tested at 100 (diamond), 50 (circle) and 25 μM (triangle) compared to control (black squares). (D) Representative pictures of sprouting from control and SM.2–23 treated aortic sections. […] (E) Angiogenic response is evaluated 4 days later, and expressed as number of vessels entering the sponge (mean and SD). […]
BAEC (2500 cells/well) were plated in 96-well plates in DMEM 1.5% FCS. […] Plates were then stained with crystal violet or MTS and analyzed as described.

[3] = system: FGF2-induced angiogenesis; assay: Chorioallantoic membrane (CAM) assay; format: in vivo, White Leghorn chicken; details: FGF2 200 ng, compound 0.5 μg
Procedure: as §1, with “μM).” for “μM). (C) Examples of time-dependent and dose-dependent effect of two compounds (SM.2–20 and SM.2–23), tested at 100 (diamond), 50 (circle) and 25 μM (triangle) compared to control (black squares). (D) Representative pictures of sprouting from control and SM.2–23 treated aortic sections.”
Fertilized White Leghorn chicken eggs were incubated at 37 °C at constant humidity. […] At day 12, CAMs were photographed in ovo under a stereomicroscope (Olympus), and blood vessels entering the sponge within the focal plane of the CAM were counted by two observers in double blind.

FGF2 [4] = molecular target: T1, FGF2; assay: Competition with biotinylated recombinant TSP-1 domain (E123CaG1) for binding to FGF2 (DELFIA); details: for IC50: mean ± SE of 3 experiments; for fold more active than the initial query SM27 (competition IC50): vs SM27
[5] = system: FGF2-induced vessels sprouting, murine aortic rings; assay: Aortic rings assay (FGF2-induced vessels sprouting, 3D Matrigel); parameters: species or system C57BL/6 mice; details: FGF2 30 ng/ml, small molecules 100 μM
Procedure: Figure 4 Biological activity of the selected hits. (A) Endothelial cell proliferation. BAEC were exposed to FGF2 (5 ng/ml) with increasing concentrations of molecules (3–80 μM). After 72 h, cells were stained and proliferation measured as absorbance. Data are the percentage of control proliferation (in absence of molecules), mean of value from 2 experiments performed in triplicate. (B–D) Aortic ring assay. Sections of murine aortas were embedded in Matrigel, in the presence of FGF2 (30 ng/ml) and the indicated small molecule. The formation of capillary structures sprouting from the rings was analyzed after 7 and 11 days as described in Methods, and the angiogenic response expressed as area covered by the sprouting structures (arbitrary units, mean and SE, n ≥ 6). (B) Antiangiogenic activity of the small molecules (100 μM). (C) Examples of time-dependent and dose-dependent effect of two compounds (SM.2–20 and SM.2–23), tested at 100 (diamond), 50 (circle) and 25 μM (triangle) compared to control (black squares). (D) Representative pictures of sprouting from control and SM.2–23 treated aortic sections. Original magnification, 20x. (E,F) Chorioallantoic membrane assay. FGF2 (200 ng) was administered in the absence or presence of the indicated compound (0.5 μg) on day 8 (n = 10). (E) Angiogenic response is evaluated 4 days later, and expressed as number of vessels entering the sponge (mean and SD). (F) Representative pictures are shown. Original magnification, 50x.
Thoracic aortas were removed from mice, cleaned of perivascular adipose tissue and cut into 1 mm segments. Matrigel (75 μl, BD Biosciences) was added to 96 well plates, and allowed to gellify at 37 °C for 30 min. Aortic sections were added to the wells, and covered with a second layer of Matrigel and DMEM 5% FCS containing FGF2 (30 ng/ml) and the indicated concentration of the compounds. The formation of capillary structures sprouting from the rings was analyzed after 4, 7 and 11 days with an inverted-phase contrast microscope (IX70; Olympus). Images were analyzed with ImageJ 1.48, and the angiogenic response expressed as area covered by the sprouting structures (arbitrary units), substracted the area of the aortic section.

FGF2 [6] = molecular target: T1, FGF2; assay: SPR direct binding to sensorchip-immobilized FGF2; details: single site model, one experiment representative of two, read-out: Kd (dissociation constant) of FGF2/compound interaction
Procedure: SPR measurements were performed on a BIAcore X100 instrument (GE-Healthcare, WI). FGF2 was immobilized on a CM5 sensorchip (GE-Healthcare) as described, allowing the immobilization of 7,365 resonance units (RU) (410 fmol/mm^2 of FGF-2).
Suppl. Table S2. Determination of the affinity (Kd) of the FGF2/compound interactions by
Binding parameters were calculated by the non-linear curve fitting software package BIAevaluation
3.2 using a single site model with correction for mass transfer. Dissociation constant (Kd) values
were derived from the dissociation rate/association ratio. Only sensorgrams whose fitting gave
values of X2 lower than 10 were used {Khalifa, 2001 #213}.

T1 sequence (P09038 134-288 limits assumed): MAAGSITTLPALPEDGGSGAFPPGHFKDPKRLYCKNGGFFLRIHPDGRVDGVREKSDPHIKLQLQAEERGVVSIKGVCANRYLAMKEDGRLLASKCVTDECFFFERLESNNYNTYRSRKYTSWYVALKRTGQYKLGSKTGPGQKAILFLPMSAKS
T2 sequence (P09038 with tags, fused parts or gaps isoform P09038-2 C78S/C96S limits assumed): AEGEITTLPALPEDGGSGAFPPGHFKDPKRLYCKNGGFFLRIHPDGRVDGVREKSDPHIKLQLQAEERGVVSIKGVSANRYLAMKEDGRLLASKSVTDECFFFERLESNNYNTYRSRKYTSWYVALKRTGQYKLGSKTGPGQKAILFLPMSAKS

| SMILES | ability to bind FGF2 in the competition assay (phenylamino-substituted naphthalenes) (FGF2 [1]) | affinity for FGF2 indicated by NMR titration (FGF2 [2]) | IC50 (FGF2 [4]) | fold more active than the initial query SM27 (competition IC50) (FGF2 [4]) | inhibition of FGF2-induced endothelial cell proliferation (antiproliferative activity) (BAEC) | inhibition of FGF2-induced angiogenesis in the CAM assay [3] | other results |
| --- | --- | --- | --- | --- | --- | --- | --- |
| Nc1cccc2cc(S(=O)(=O)O)ccc12 [5-amino-2-naphthalenesulfonate] |  |  |  |  |  |  | IC50 (FGF2 mitogenic activity): 265000 nM |
| Oc1cccc2ccc(Nc3ccccc3)cc12 [SM.1–33, 8-hydroxy-N-phenylanaphthalen-2-aminium chloride] | inactive |  |  |  | significant loss of activity |  |  |
| Nc1cccc(/N=N/c2c(S(=O)(=O)O)cc3cc(NC(=O)Nc4ccc5c(O)c(/N=N/c6cccc(N)c6)c(S(=O)(=O)O)cc5c4)ccc3c2O)c1 [SM.2–18, 3-((E)-(3-aminophenyl)diazenyl)-7-(3-(6-((E)-(3-aminophenyl)diazenyl)-5-hydroxy-7-sulfonaphthalen-2-yl)ureido)-4-hydroxynaphthalene-2-sulfonic acid] |  |  | 610 ± 60 nM | 6–11 fold |  | active |  |

More lines, main results first:

| ability to bind FGF2 in the competition assay (phenylamino-substituted naphthalenes) (FGF2 [1]) | affinity for FGF2 indicated by NMR titration (FGF2 [2]) | IC50 (FGF2 [4]) | fold more active than the initial query SM27 (competition IC50) (FGF2 [4]) | SMILES | inhibition of FGF2-induced endothelial cell proliferation (antiproliferative activity) (BAEC) | inhibition of FGF2-induced angiogenesis in the CAM assay [3] | other results |
| --- | --- | --- | --- | --- | --- | --- | --- |
| most active | high micromolar range |  |  | O=S(=O)([O-])c1cccc2cc(Nc3ccccc3)ccc12.[Na+] [SM.1–31, sodium 6-(phenylamino)naphthalene-1-sulfonate] | increased activity |  |  |
| most active | high micromolar range |  |  | O=S(=O)([O-])c1cc(S(=O)(=O)[O-])c2ccc(Nc3ccccc3)cc2c1O.[Na+].[Na+] [SM.1–34, sodium 4-hydroxy-6-(phenylamino)naphthalene-1,3-disulfonate] |  |  |  |
|  |  | 460 ± 100 nM | 6–11 fold | Cc1ccc(C)c(/N=N/c2c(S(=O)(=O)O)cc3cc(NC(=O)Nc4ccc5c(O)c(/N=N/c6ccc7cc(S(=O)(=O)O)ccc7c6)c(S(=O)(=O)O)cc5c4)ccc3c2O)c1 [SM.2–24, 3-((E)-(2,5-dimethylphenyl)diazenyl)-4-hydroxy-7-(3-(5-hydroxy-7-sulfo-6-((E)-(6-sulfonaphthalen-2-yl)diazenyl)naphthalen-2-yl)ureido)naphthalene-2-sulfonic acid] |  | active | inhibition of FGF2-induced vessels sprouting [5]: significantly inhibited; Kd (FGF2 [6]): 111 nM |
